Reference: ChEMBL document CHEMBL4417633, “Inhibitory polypeptides specific to WNT inhibitors” (2017)
Active and inactive are the calls of the source. No cut-off for these calls is given here. Where a SMILES comes first, the peptide text is derived from it.

Legend:
[1] = target: T1, Dickkopf-related protein 1 (Homo sapiens) (UniProt O94907); test: (§1) Inhibition of biotin-labeled human recombinant DKK1 assessed as reduction in DKK1 interaction with LRP-6/Fc incubated overnight by chemiluminescence based Alpha-screen assay
T1 sequence (whole entry): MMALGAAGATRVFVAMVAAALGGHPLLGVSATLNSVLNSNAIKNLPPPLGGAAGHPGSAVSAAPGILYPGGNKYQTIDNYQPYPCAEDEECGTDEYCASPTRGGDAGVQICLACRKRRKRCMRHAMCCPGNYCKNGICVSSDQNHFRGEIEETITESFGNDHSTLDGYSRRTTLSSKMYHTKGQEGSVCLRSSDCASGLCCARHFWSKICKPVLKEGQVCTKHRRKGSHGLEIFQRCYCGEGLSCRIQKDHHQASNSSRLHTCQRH

[2] = target: T2, Dickkopf WNT-signaling pathway inhibitor 1 (Rattus norvegicus) (UniProt A6I0Z0); test: (§2) Inhibition of biotin-labeled rat recombinant DKK1 assessed as reduction in DKK1 interaction with LRP-6/Fc incubated overnight by chemiluminescence based Alpha-screen assay
T2 sequence (whole entry): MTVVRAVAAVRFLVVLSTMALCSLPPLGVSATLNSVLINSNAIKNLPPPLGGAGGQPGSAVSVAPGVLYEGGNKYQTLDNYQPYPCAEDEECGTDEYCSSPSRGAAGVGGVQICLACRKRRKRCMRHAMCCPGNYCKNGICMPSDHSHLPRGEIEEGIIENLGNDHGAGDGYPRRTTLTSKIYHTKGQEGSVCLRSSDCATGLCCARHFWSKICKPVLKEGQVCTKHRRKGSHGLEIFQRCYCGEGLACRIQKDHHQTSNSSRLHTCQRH

[3] = target: T3, Dickkopf-related protein 1 (Homo sapiens, UniProt O94907); test: Inhibition of human DKK1 in MC3T3E1/TetON-Wnt1/STF-Luc#5 cells assessed as DKK1 neutralizing activity by Wnt1-induced TCF/LEF luciferase reporter gene assay
T3 sequence (O94907 whole entry): T1 sequence (whole entry)

[4] = target: T3, Dickkopf-related protein 1; test: as §1
[5] = target: T4, Dickkopf WNT-signaling pathway inhibitor 1 (Rattus norvegicus, UniProt A6I0Z0); test: as §2
T4 sequence (A6I0Z0 whole entry): T2 sequence (whole entry)

Structure (SMILES)	inhibition [1]	inhibition [2]	IC50 [3]	IC50 [4]	IC50 [5]
CC[C@H](C)[C@H](NC(=O)[C@H](CS)NC(=O)[C@H](CC(=O)O)NC(=O)[C@@H]1CCCN1C(=O)[C@H](Cc1ccccc1)NC(=O)CNC(=O)[C@H](CC(=O)O)NC(=O)[C@H](CS)NC(=O)[C@H](CCCNC(=N)N)NC(=O)[C@H](Cc1c[nH]c2ccccc12)NC(=O)[C@H](CCC(=O)O)NC(=O)[C@H](CCSC)NC(=O)[C@@H]1CCCN1C(=O)[C@H](Cc1ccc(O)cc1)NC(=O)[C@H](CS)NC(=O)[C@H](Cc1cnc[nH]1)NC(=O)[C@H](CCCCN)NC(=O)[C@H](Cc1ccc(O)cc1)NC(=O)[C@H](CCC(=O)O)NC(=O)[C@H](CCCNC(=N)N)NC(=O)[C@H](CS)NC(=O)[C@H](CCC(N)=O)NC(=O)[C@H](Cc1ccccc1)NC(=O)[C@H](Cc1ccc(O)cc1)NC(=O)[C@H](CO)NC(=O)[C@H](CCC(=O)O)NC(=O)[C@@H]1CCCN1C(=O)[C@@H](N)CS)C(=O)N[C@@H](CC(=O)O)C(=O)N[C@@H](CO)C(=O)N[C@@H](CO)C(=O)N[C@@H](CC(=O)O)C(=O)N[C@@H](CCC(=O)O)C(=O)N[C@H](C(=O)N[C@@H](CC(=O)O)C(=O)N[C@@H](CS)C(=O)NCC(=O)NCC(=O)NCC(=O)NCC(=O)O)[C@@H](C)O (H-CPESYFQCREYKHCYPMEWRCDGFPDCIDSSDETDCGGGG-OH)	Active	Active	0.8 to 3 nM		
CSCC[C@H](NC(=O)[C@@H]1CCCN1C(=O)[C@H](Cc1cnc[nH]1)NC(=O)[C@H](CS)NC(=O)[C@@H]1CCCN1C(=O)[C@@H]1CCCN1C(=O)[C@H](CC(=O)O)NC(=O)[C@H](CC(N)=O)NC(=O)[C@H](CCCNC(=N)N)NC(=O)[C@H](CS)NC(=O)[C@H](CCC(N)=O)NC(=O)[C@H](Cc1ccccc1)NC(=O)[C@H](Cc1ccc(O)cc1)NC(=O)[C@@H]1CCCN1C(=O)[C@H](C)NC(=O)[C@@H]1CCCN1C(=O)[C@@H](N)CS)C(=O)N[C@@H](CC(=O)O)C(=O)N[C@@H](Cc1c[nH]c2ccccc12)C(=O)N[C@@H](CCCNC(=N)N)C(=O)N[C@@H](CS)C(=O)N[C@@H](CC(=O)O)C(=O)NCC(=O)N[C@@H](Cc1ccccc1)C(=O)N1CCC[C@H]1C(=O)N[C@@H](CC(=O)O)C(=O)N[C@@H](CS)C(=O)N[C@H](C(=O)N[C@@H](CC(=O)O)C(=O)NCC(=O)N[C@@H](CO)C(=O)N[C@@H](CC(=O)O)C(=O)N[C@@H](CCC(=O)O)C(=O)N[C@@H](CCCCN)C(=O)NCC(=O)N[C@@H](CS)C(=O)NCC(=O)NCC(=O)NCC(=O)NCC(=O)O)C(C)C (H-CPAPYFQCRNDPPCHPMDWRCDGFPDCVDGSDEKGCGGGG-OH)	Active	Active	0.8 to 3 nM		
CSCC[C@H](NC(=O)[C@@H]1CCCN1C(=O)[C@H](Cc1ccc(O)cc1)NC(=O)[C@H](CS)NC(=O)[C@H](Cc1cnc[nH]1)NC(=O)[C@@H]1CCCN1C(=O)[C@H](Cc1cnc[nH]1)NC(=O)[C@H](CCCNC(=N)N)NC(=O)[C@H](CCCNC(=N)N)NC(=O)[C@H](CS)NC(=O)[C@H](CCC(N)=O)NC(=O)[C@H](Cc1ccccc1)NC(=O)[C@H](Cc1ccc(O)cc1)NC(=O)[C@H](CO)NC(=O)[C@H](C)NC(=O)[C@@H]1CCCN1C(=O)[C@@H](N)CS)C(=O)N[C@@H](CCC(=O)O)C(=O)N[C@@H](Cc1c[nH]c2ccccc12)C(=O)N[C@@H](CCCNC(=N)N)C(=O)N[C@@H](CS)C(=O)N[C@@H](CC(=O)O)C(=O)NCC(=O)N[C@@H](Cc1ccccc1)C(=O)N1CCC[C@H]1C(=O)N[C@@H](CC(=O)O)C(=O)N[C@@H](CS)C(=O)N[C@@H](CC(C)C)C(=O)N[C@@H](CC(=O)O)C(=O)NCC(=O)N[C@@H](CO)C(=O)N[C@@H](CC(=O)O)C(=O)N[C@@H](CCC(=O)O)C(=O)N[C@@H](CCC(=O)O)C(=O)NCC(=O)N[C@@H](CS)C(=O)NCC(=O)NCC(=O)NCC(=O)NCC(=O)O (H-CPASYFQCRRHPHCYPMEWRCDGFPDCLDGSDEEGCGGGG-OH)	Active	Active	0.8 to 3 nM		
CC[C@H](C)[C@H](NC(=O)[C@H](CS)NC(=O)[C@H](CC(=O)O)NC(=O)[C@@H]1CCCN1C(=O)[C@H](Cc1ccccc1)NC(=O)CNC(=O)[C@H](CC(=O)O)NC(=O)[C@H](CS)NC(=O)[C@H](CCCNC(=N)N)NC(=O)[C@H](Cc1c[nH]c2ccccc12)NC(=O)[C@H](CCC(=O)O)NC(=O)[C@H](CCSC)NC(=O)[C@@H]1CCCN1C(=O)[C@H](Cc1ccc(O)cc1)NC(=O)[C@H](CS)NC(=O)[C@H](Cc1cnc[nH]1)NC(=O)[C@@H]1CCCN1C(=O)[C@H](Cc1cnc[nH]1)NC(=O)[C@H](CC(N)=O)NC(=O)[C@H](CCCNC(=N)N)NC(=O)[C@H](CS)NC(=O)[C@H](CCCCN)NC(=O)[C@H](Cc1ccccc1)NC(=O)[C@H](Cc1ccc(O)cc1)NC(=O)[C@H](CO)NC(=O)[C@H](C)NC(=O)[C@@H]1CCCN1C(=O)[C@@H](N)CS)C(=O)N[C@@H](CC(=O)O)C(=O)NCC(=O)N[C@@H](CO)C(=O)N[C@@H](CC(=O)O)C(=O)N[C@@H](CCC(=O)O)C(=O)N[C@H](C(=O)N[C@@H](C)C(=O)N[C@@H](CS)C(=O)NCC(=O)NCC(=O)NCC(=O)NCC(=O)O)[C@H](C)O	Active	Active	0.8 to 3 nM		
CSCC[C@H](NC(=O)[C@@H]1CCCN1C(=O)[C@H](Cc1ccc(O)cc1)NC(=O)[C@H](CS)NC(=O)[C@H](Cc1cnc[nH]1)NC(=O)[C@H](CC(N)=O)NC(=O)[C@H](CCCNC(=N)N)NC(=O)[C@H](CC(N)=O)NC(=O)[C@H](CCCNC(=N)N)NC(=O)[C@H](CS)NC(=O)[C@H](CCCNC(=N)N)NC(=O)[C@H](Cc1ccccc1)NC(=O)[C@H](Cc1ccc(O)cc1)NC(=O)[C@H](CO)NC(=O)[C@H](C)NC(=O)[C@@H]1CCCN1C(=O)[C@@H](N)CS)C(=O)N[C@@H](CCC(=O)O)C(=O)N[C@@H](Cc1c[nH]c2ccccc12)C(=O)N[C@@H](CCCNC(=N)N)C(=O)N[C@@H](CS)C(=O)N[C@@H](CC(=O)O)C(=O)NCC(=O)N[C@@H](Cc1ccccc1)C(=O)N1CCC[C@H]1C(=O)N[C@@H](CC(=O)O)C(=O)N[C@@H](CS)C(=O)N[C@@H](CCC(=O)O)C(=O)N[C@@H](CC(=O)O)C(=O)N[C@@H](C)C(=O)N[C@@H](CO)C(=O)N[C@@H](CC(=O)O)C(=O)N[C@@H](CCC(=O)O)C(=O)N[C@@H](CCCCN)C(=O)NCC(=O)N[C@@H](CS)C(=O)N1CCC[C@H]1C(=O)N[C@@H](Cc1ccc(O)cc1)C(=O)N[C@@H](CCCNC(=N)N)C(=O)N[C@H](C(=O)O)[C@@H](C)O (H-CPASYFRCRNRNHCYPMEWRCDGFPDCEDASDEKGCPYRT-OH)				≤ 1 nM	≤ 1 nM
CSCC[C@H](NC(=O)[C@@H]1CCCN1C(=O)[C@H](Cc1ccc(O)cc1)NC(=O)[C@H](CS)NC(=O)[C@H](Cc1cnc[nH]1)NC(=O)[C@H](CC(N)=O)NC(=O)[C@H](Cc1cnc[nH]1)NC(=O)[C@H](CC(N)=O)NC(=O)[C@H](CCCNC(=N)N)NC(=O)[C@H](CS)NC(=O)[C@H](CCCNC(=N)N)NC(=O)[C@H](Cc1ccccc1)NC(=O)[C@H](Cc1ccc(O)cc1)NC(=O)[C@H](CO)NC(=O)[C@H](C)NC(=O)[C@@H]1CCCN1C(=O)[C@@H](N)CS)C(=O)N[C@@H](CCC(=O)O)C(=O)N[C@@H](Cc1c[nH]c2ccccc12)C(=O)N[C@@H](CCCNC(=N)N)C(=O)N[C@@H](CS)C(=O)N[C@@H](CC(=O)O)C(=O)NCC(=O)N[C@@H](Cc1ccccc1)C(=O)N[C@@H](CC(=O)O)C(=O)N[C@@H](CC(=O)O)C(=O)N[C@@H](CS)C(=O)N[C@@H](CCC(=O)O)C(=O)N[C@@H](CC(=O)O)C(=O)NCC(=O)N[C@@H](CO)C(=O)N[C@@H](CC(=O)O)C(=O)N[C@@H](CCC(=O)O)C(=O)N[C@@H](CCC(N)=O)C(=O)NCC(=O)N[C@@H](CS)C(=O)N1CCC[C@H]1C(=O)N[C@@H](Cc1ccc(O)cc1)C(=O)N[C@@H](CCCNC(=N)N)C(=O)N[C@H](C(=O)O)[C@@H](C)O (H-CPASYFRCRNHNHCYPMEWRCDGFDDCEDGSDEQGCPYRT-OH)				≤ 1 nM	≤ 1 nM
